Measurements taken from US20060252766A1, “Methods using a combination of 3-heteroaryl-2-indolinone and a cyclooxygenase-2 inhibitor for the treatment of neoplasia” (PFIZER INC, priority 2002, published 2006).
Values joined by “and” are separate entries in the source; they are usually repeats but may differ in a detail not shown here. Equal values may be shown once.

Test system: 1483 human head and neck squamous cell carcinoma (HNSCC) xenograft
Assay: HN1483 tumor model: paw tumor volume of treated mice
Type: in vivo, nude mice
Details: for Paw volume, paw / Tumor vol.: individual mice; for Tumor vol.: paw minus BKG. 0.10
[1] = Celecoxib/40 ppm, Day 17 Mar. 16, 2001
[2] = Celecoxib/40 ppm, Day 21 Mar. 20, 2001
[3] = Celecoxib/40 ppm, Day 24 Mar. 23, 2001
[4] = Celecoxib/40 ppm, Day 31 Apr. 2, 2001
[5] = Celecoxib/40 ppm, Day 31 Mar. 30, 2001
[6] = Celecoxib/160 ppm, Day 17 Mar. 16, 2001
[7] = Celecoxib/160 ppm, Day 21 Mar. 20, 2001
[8] = Celecoxib/160 ppm, Day 24 Mar. 23, 2001
[9] = Celecoxib/160 ppm, Day 31 Apr. 2, 2001
[10] = Celecoxib/160 ppm, Day 31 Mar. 30, 2001

Structure (SMILES): Cc1ccc(-c2cc(C(F)(F)F)nn2-c2ccc(S(N)(=O)=O)cc2)cc1 [Celecoxib, celecoxib, reference compound]
- Paw volume, paw (Celecoxib/40 ppm, Day 14 Mar. 13, 2001): 0.28 (2×) and 0.25 (2×) and 0.24 (2×) and 0.29 and 0.27
- Tumor vol. Average (Celecoxib/40 ppm, Day 17 Mar. 16, 2001, group average): 0.17
- Paw volume, paw [1]: 0.3 and 0.29 (2×) and 0.22 and 0.32 and 0.27 and 0.25 (2×)
- Tumor vol. [1]: 0.20 and 0.19 (2×) and 0.12 and 0.22 and 0.17 and 0.15 (2×)
- Tumor vol. Average (Celecoxib/40 ppm, Day 21 Mar. 20, 2001, group average): 0.22
- Paw volume, paw [2]: 0.38 (2×) and 0.23 and 0.36 and 0.28 (2×) and 0.39 and 0.31
- Tumor vol. [2]: 0.28 (3×) and 0.13 and 0.18 (2×) and 0.29 and 0.21
- Tumor vol. Average (Celecoxib/40 ppm, Day 24 Mar. 23, 2001, group average): 0.23
- Paw volume, paw [3]: 0.37 and 0.32 and 0.23 and 0.44 and 0.28 and 0.29 and 0.47 and 0.27
- Tumor vol. [3]: 0.27 and 0.22 and 0.13 and 0.34 and 0.18 and 0.19 and 0.37 and 0.17
- Tumor vol. Average (Celecoxib/40 ppm, Day 31 Apr. 2, 2001, group average): 0.48
- Paw volume, paw [4]: 0.7 and 0.48 (2×) and 0.25 and 0.75 and 0.44 and 0.38 and 0.89
- Tumor vol. [4]: 0.60 and 0.38 (2×) and 0.18 and 0.55 and 0.34 and 0.28 and 0.79
- Tumor vol. Average (Celecoxib/40 ppm, Day 31 Mar. 30, 2001, group average): 0.40
- Paw volume, paw [5]: 0.63 and 0.51 and 0.27 and 0.72 and 0.30 and 0.39 and 0.71 and 0.41
- Tumor vol. [5]: 0.53 and 0.41 and 0.17 and 0.82 and 0.29 and 0.20 and 0.61 and 0.31
- Paw volume, paw (Celecoxib/160 ppm, Day 14 Mar. 13, 2001): 0.19 and 0.26 and 0.22 and 0.3 and 0.23 (3×) and 0.28
- Tumor vol. Average (Celecoxib/160 ppm, Day 17 Mar. 16, 2001, group average (row not labelled)): 0.18
- Paw volume, paw [6]: 0.24 and 0.25 (2×) and 0.21 and 0.31 and 0.23 and 0.29 and 0.27
- Tumor vol. [6]: 0.14 and 0.15 (2×) and 0.11 and 0.21 and 0.13 and 0.19 and 0.17
- Tumor vol. Average (Celecoxib/160 ppm, Day 21 Mar. 20, 2001, group average (row not labelled)): 0.15
- Paw volume, paw [7]: 0.22 and 0.28 (2×) and 0.24 and 0.32 and 0.3 (2×) and 0.25
- Tumor vol. [7]: 0.12 and 0.16 (3×) and 0.14 and 0.22 and 0.20 (2×)
- Tumor vol. Average (Celecoxib/160 ppm, Day 24 Mar. 23, 2001, group average (row not labelled)): 0.19
- Paw volume, paw [8]: 0.22 and 0.28 and 0.24 (2×) and 0.38 and 0.27 and 0.35 and 0.31
- Tumor vol. [8]: 0.12 and 0.16 and 0.14 (2×) and 0.28 and 0.17 and 0.26 and 0.21
- Tumor vol. Average (Celecoxib/160 ppm, Day 31 Apr. 2, 2001, group average (row not labelled)): 0.29
- Paw volume, paw [9]: 0.33 (3×) and 0.57 and 0.29 and 0.59 and 0.4 and 0.28
- Tumor vol. [9]: 0.23 (2×) and 0.22 and 0.47 and 0.19 and 0.49 and 0.30 and 0.10
- Tumor vol. Average (Celecoxib/160 ppm, Day 31 Mar. 30, 2001, group average (row not labelled)): 0.29
- Paw volume, paw [10]: 0.38 and 0.32 and 0.3 and 0.49 and 0.33 and 0.57 and 0.4 and 0.5
- Tumor vol. [10]: 0.28 and 0.22 and 0.20 (2×) and 0.39 and 0.23 and 0.47 and 0.30
